Test results published in ChEMBL document CHEMBL5257136, “PROTAC Targeted Degradation of IRAK-4 as Potential Treatment in Cancer” (ACS Med Chem Lett, 2023).

What was measured:
Assay type in all cases: cell-based
[1] = biological target: T1, Protein cereblon/Interleukin-1 receptor-associated kinase 4 (Homo sapiens, UniProt Q96SW2+Q9NWZ3); experiment: Binding affinity to CRBN/IRAK4 in human PBMC cells assessed as inhibition of LPS-stimulated IL-6 production incubated for 24 hrs by MSD analysis
[2] = biological target: T2, Protein cereblon/Interleukin-1 receptor-associated kinase 4 (Homo sapiens) (UniProt Q9NWZ3+Q96SW2); experiment: Binding affinity to CRBN/IRAK4 in human PBMC cells assessed as inhibition of LPS-stimulated IL-6 production by measuring maximal efficacy incubated for 24 hrs by MSD analysis relative to control
T2 sequence (Q96SW2 whole entry, looked up): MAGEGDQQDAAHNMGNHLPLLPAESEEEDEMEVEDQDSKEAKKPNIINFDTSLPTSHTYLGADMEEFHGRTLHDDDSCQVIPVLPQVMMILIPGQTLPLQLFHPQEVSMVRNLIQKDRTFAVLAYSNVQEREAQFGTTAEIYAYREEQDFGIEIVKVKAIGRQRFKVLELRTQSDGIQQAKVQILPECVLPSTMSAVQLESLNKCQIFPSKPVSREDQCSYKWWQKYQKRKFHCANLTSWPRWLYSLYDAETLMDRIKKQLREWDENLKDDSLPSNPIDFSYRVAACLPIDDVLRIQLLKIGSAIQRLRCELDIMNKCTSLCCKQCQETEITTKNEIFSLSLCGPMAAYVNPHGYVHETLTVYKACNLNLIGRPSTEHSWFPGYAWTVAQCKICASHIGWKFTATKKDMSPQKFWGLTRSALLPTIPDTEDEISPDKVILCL
T2 sequence (Q9NWZ3 whole entry, looked up): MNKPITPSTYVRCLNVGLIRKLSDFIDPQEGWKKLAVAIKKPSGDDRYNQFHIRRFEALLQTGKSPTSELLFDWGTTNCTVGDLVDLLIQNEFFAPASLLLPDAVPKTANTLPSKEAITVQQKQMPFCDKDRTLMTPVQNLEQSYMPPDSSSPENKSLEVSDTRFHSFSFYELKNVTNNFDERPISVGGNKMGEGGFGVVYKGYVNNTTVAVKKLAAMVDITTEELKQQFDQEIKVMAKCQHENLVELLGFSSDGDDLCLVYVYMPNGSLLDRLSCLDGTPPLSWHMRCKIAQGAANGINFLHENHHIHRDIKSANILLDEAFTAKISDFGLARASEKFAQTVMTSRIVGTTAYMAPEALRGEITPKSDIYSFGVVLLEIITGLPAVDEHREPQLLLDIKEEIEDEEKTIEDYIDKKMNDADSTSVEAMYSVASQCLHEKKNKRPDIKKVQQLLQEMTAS

[3] = biological target: T1, Protein cereblon/Interleukin-1 receptor-associated kinase 4; experiment: Binding affinity to CRBN/IRAK4 in human PBMC cells assessed as inhibition of R848-stimulated IL-6 production incubated for 24 hrs by MSD analysis
[4] = biological target: T2, Protein cereblon/Interleukin-1 receptor-associated kinase 4 (Homo sapiens); experiment: Binding affinity to CRBN/IRAK4 in human PBMC cells assessed as inhibition of R848-stimulated IL-6 production by measuring maximal efficacy incubated for 24 hrs by MSD analysis relative to control

T1 sequence (Q9NWZ3 whole entry): as the sequence (Q9NWZ3 whole entry, looked up) above
T1 sequence (Q96SW2 whole entry): as the sequence (Q96SW2 whole entry, looked up) above

Compound | IC50 [1] | Emax [2] | IC50 [3] | Emax [4]
CC(C)Oc1cc2c(cc1NC(=O)c1cnn3cccnc13)CN(C1CCN(C(C)(C)C3CN(c4ccc5c(c4)C(=O)N(C4CCC(=O)NC4=O)C5=O)C3)CC1)C2=O (stereo not given) | ≥ 10 nM | > 90% | ≥ 10 nM | > 90%
O=C1CCC(N2C(=O)c3ccc(N4CCC(CN5CCC(N6Cc7cc(NC(=O)c8cnn9cccnc89)c(N8CCN(CC(F)F)CC8)cc7C6=O)CC5)CC4)cc3C2=O)C(=O)N1 (stereo not given) | ≥ 10 nM | 80% | ≥ 10 nM | 80%
CC(C)Oc1cc2c(cc1NC(=O)c1cnn3cccnc13)CN(C1CCN(CC3(F)CN(c4ccc5c(c4F)CN(C4CCC(=O)NC4=O)C5=O)C3)CC1)C2=O (stereo not given) | ≥ 10 nM | > 90% | ≥ 50 nM | > 90%
O=C1CCC(N2Cc3cc(N4CCC(CN5CCC(n6cc7cc(NC(=O)c8cnn9cccnc89)c(OCC(F)F)cc7n6)CC5)CC4)ccc3C2=O)C(=O)N1 (stereo not given) | ≥ 10 nM | 70% | < 10 nM | > 90%
O=C1CCC(N2Cc3ccc(N4CC(F)(CN5CCC(N6Cc7cc(NC(=O)c8cnn9cccnc89)c(N8CCC(N9CCC9)CC8)cc7C6=O)CC5)C4)cc3C2=O)C(=O)N1 (stereo not given) | < 10 nM | 80% | < 10 nM | > 90%
O=C1CCC(N2Cc3c(ccc(N4CCC(CN5CCC(n6cc7cc(NC(=O)c8cnn9cccnc89)c(N8CCN(CC(F)F)CC8)cc7n6)CC5)CC4)c3F)C2=O)C(=O)N1 (stereo not given) | < 10 nM | 80% | < 10 nM | > 90%
CC(C)Oc1cc2c(cc1NC(=O)c1cnn3cccnc13)CN(C1CCN(CC3CCN(c4ccc5c(c4)C(=O)N(C4CCC(=O)NC4=O)C5=O)CC3)CC1)C2=O (stereo not given) | < 10 nM | 80% | < 10 nM | > 90%
O=C1CCC(N2Cc3cc(N4CCC(CN5CCC(N6Cc7cc(NC(=O)c8cnn9cccnc89)c(N8CCC(N9CCC9)CC8)cc7C6=O)CC5)CC4)ccc3C2=O)C(=O)N1 (stereo not given) | < 10 nM | > 90% | < 10 nM | > 90%
O=C1CCC(N2Cc3ccc(N4CCC(CN5CCC(N6Cc7cc(NC(=O)c8cnn9cccnc89)c(N8CCC(N9CCC9)CC8)cc7C6=O)CC5)CC4)cc3C2=O)C(=O)N1 (stereo not given) | < 10 nM | > 90% | < 10 nM | > 90%
O=C1CCC(N2Cc3ccc(N4CCC(CN5CCC(n6cc7cc(NC(=O)c8cnn9cccnc89)c(OCC8CC8)cc7n6)CC5)CC4)cc3C2=O)C(=O)N1 (stereo not given) | < 10 nM | 80% | < 10 nM | > 90%
